How the values were obtained:
[1] = Caspase-3 pathology analysis of treated mice; type: in vivo
Protocol: Based on the encouraging results obtained in ex vivo models of AML, we further assessed the therapeutic potential of the new NPM1 inhibitor in vivo. Prior to the evaluation of the compound in an animal model of AML, in vivo pharmacokinetic studies were addressed. Following a single intraperitoneal administration of UCM-13369 at a dose of 25 mg/kg, levels of 200–600 μg/L were detected in mouse peripheral blood up to 6 h (Figure 6A). Plasma protein binding of the compound in mouse serum was measured using an equilibrium dialysis assay, indicating a bound fraction of 83 ± 1%. Next, the efficacy of the compound was evaluated in immunodeficient mice after injection of OCI-AML3-ffLuc-GFP cells as an AML animal model. […]
(D) IHC analysis of a poptotic cells in a representative kidney
sample from OC I-AML 3 xenograft mice treat ed with DMSO (vehicle, top) vs . UCM-
13369 treated mice (50 mg/kg, bottom) mice: H&E ( left) and cleav ed caspase- 3 (right).
Scale bar: 100 μm. (E ) Dose-response curve of UCM-13369 in human renal proximal

[2] = tested on: MCF-7-derived mamospheres; experiment: Formation of MCF-7-derived mamospheres (CSC tumorspheres); type: cell-based
Protocol: (BD Biosciences, Franklin Lakes, NJ, USA). All cells were maintained at 37 °C in a humidified incubator in an atmosphere of 5% CO2, and passaged every 2–3 days.
Additionally, they were cultured using RPMI media (Gibco/Life Technologies; Grand […]
Colonospheres, mamospheres and colony formation unit assays. 30.000 cells per well of MCF-7 cells (mamos pheres), HCT-116 cells (colonospheres) and CD34+ cells from patients (colony formation units) were seeded in serum free non- adherent medium or […]
MethoCult (Stem Cell). […]

c-Myc = experiment: qPCR and Western blot of c-Myc in OCI-AML3 cells; type: cell-based
Description: We next studied the impact of UCM-13369 in the genes and/or expression levels of NPM1 and NPM1 C+ pathway components (Figure 4A), including the positive regulation of c-Myc[34] and the negative regulation of FBXW7 and the pro-apoptotic CASP8.[35] […] The inhibition of NPM1 was also observed in MOLM13 cells expressing WT NPM1 (Figure S1B). […]
quantitative real-time PCR (qPCR), or were sorted using a FACS BD INFL UX cell sorter (BD Biosciences, Franklin Lakes, NJ, USA). All cells were maintained at 37 °C in a humidified incubator in an atmosphere of 5% CO2, and passaged every 2–3 days. […]
Primary cells. […] After 72 h in maintenance cells were ready to start the assays. […]
Colonospheres, mamospheres and colony formation unit assays. […] After 10 days (mamospheres and colonospheres) and 14 days (CFU-E) we quantified t he number of colonies/spheres and number of cell s (CFU-E) by […]
RNA and DNA extraction and quantitative PCR (qPCR). […] Gene expression was studied from the extracted RNA, processed into cDNA to quantify the expression of NPM1 and c-MYC. […]
The relative amount of targets was determined by the comparative Ct method.
Western blot. […] Lysates wer e cl ear ed by centrifugation (14,000g, 4 °C, 30 min), protein concentration determined by Bradford […]
Proteomic analysis. […] Follows the image of a Venn diagram showing the number of proteins detected in each of the pop ulations and the proteins that converg e […]

[3] = tested on: primary CD34+ cells from AML patients; experiment: Flow cytometry CD34-PE/Annexin V-FITC of primary HSCs from AML patients; type: cell-based, human; conditions: 5μM, representative sample
Protocol: The inhibition of NPM1, especially NPM1 C+ pathway (as shown in Figure 4), by UCM-13369 correlates with the increase of apoptosis observed in treated primary CD34+ cells upon staining with Annexin V (Figure 5C).
CFU-E and CD34+ primary cells with and without UCM-13369 treatment were analyzed. The following monoclonal antibodies were used: CD34-PE, Annexin V-FITC (BD Biosciences). The cells were incubated with antibodies in PBS on ice for 15 min in the dark. The analysis of CD34+ and Annexin V+ subpopulation was carried out in a flow cytometer FACSCalibur (Becton Dickinson, Citometría y Microscopía de Fluorescencia core facility, UCM) and the data were processed using FlowJo_V10 software.

Structure (SMILES): COc1ccc(C2Cc3[nH]c4ccccc4c3C(CCNCC3CC3)C2N)cc1 (stereo not drawn) [4b, 4-{2-[(Cyclopropylmethyl)amino]ethyl}-2-(4-methoxyphenyl)-2,3,4,9-tetrahydro-1H-carbazol-3-amine]
- Caspase-3 cleavage in kidney (in words) ([1]; 50 mg/kg): some caspase-3 cleavage
- Toxicity in bone marrow and liver, caspase-3 pathology (in words) ([1]; data not shown): absence of toxicity
- inhibition at 5 µM ([2]; Homo sapiens, MCF7, @5 µM (footnote d), read-out: Inhibition of tumorsphere formation (%) MCF-7): 100%
- Formation of tumorspheres (in words) ([2]; MCF-7 mamospheres and HCT-116 colonospheres, noncytotoxic concentration): completely inhibit
- c-Myc levels (in words) (c-Myc): reduced levels
- CD34+/AnnexinV+ [3]: 43.09%

Source: PMC11134387, “Cancer-Stem-Cell Phenotype-Guided Discovery of a Microbiota-Inspired Synthetic Compound Targeting NPM1 for Leukemia” (JACS Au, 2024)
